Assay results as given in US12448369B2 (Edgewise Therapeutics, Inc., priority 2023, dated 2025).

Tests used:
[1] = test system: Rabbit Psoas myofibrils (skeletal myosin ATPase); test: Myofibril ATPase assay, rabbit psoas (skeletal) myofibrils; assay type: biochemical; settings: Y75 value (no ‡ mark); rabbit psoas myofibrils
Procedure, shortened: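 Values derive from concentration–response fits of NADH consumption rates at 340 nm, normalized to vehicle-only wells, as Y75 or Y125. Myofibril ATP turnover was linked to NADH via PK/LDH in Ca/EGTA-buffered PIPES, pH 7.0, and read over 75 min.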

[2] = test system: Porcine atria myofibrils (atrial myosin ATPase); test: Myofibril ATPase assay, porcine atria myofibrils; assay type: biochemical; settings: Y75 value (no ‡ mark); porcine atria myofibrils
Procedure, shortened: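 Atrial myofibril ATPase measured by NADH-coupled absorbance at 340 nm; vehicle-normalized slopes fitted to give Y75 or Y125 values.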

[3] = biological target: T1, Porcine ventricle myofibrils (ventricular myosin ATPase) (Sus scrofa, UniProt P79293); test: Myofibril ATPase assay, porcine ventricle myofibrils; assay type: biochemical, porcine (Yucatan minipigs); settings: Y75 value (no ‡ mark); porcine ventricle myofibrils
T1 construct: Myofibrils from porcine cardiac muscle was isolated from the left ventricle of Yucatan minipigs; tissue Exemplar Genetics; host or cells: left ventricle of Yucatan minipigs, myofibrils prepared in house
T1 sequence (P79293 whole entry): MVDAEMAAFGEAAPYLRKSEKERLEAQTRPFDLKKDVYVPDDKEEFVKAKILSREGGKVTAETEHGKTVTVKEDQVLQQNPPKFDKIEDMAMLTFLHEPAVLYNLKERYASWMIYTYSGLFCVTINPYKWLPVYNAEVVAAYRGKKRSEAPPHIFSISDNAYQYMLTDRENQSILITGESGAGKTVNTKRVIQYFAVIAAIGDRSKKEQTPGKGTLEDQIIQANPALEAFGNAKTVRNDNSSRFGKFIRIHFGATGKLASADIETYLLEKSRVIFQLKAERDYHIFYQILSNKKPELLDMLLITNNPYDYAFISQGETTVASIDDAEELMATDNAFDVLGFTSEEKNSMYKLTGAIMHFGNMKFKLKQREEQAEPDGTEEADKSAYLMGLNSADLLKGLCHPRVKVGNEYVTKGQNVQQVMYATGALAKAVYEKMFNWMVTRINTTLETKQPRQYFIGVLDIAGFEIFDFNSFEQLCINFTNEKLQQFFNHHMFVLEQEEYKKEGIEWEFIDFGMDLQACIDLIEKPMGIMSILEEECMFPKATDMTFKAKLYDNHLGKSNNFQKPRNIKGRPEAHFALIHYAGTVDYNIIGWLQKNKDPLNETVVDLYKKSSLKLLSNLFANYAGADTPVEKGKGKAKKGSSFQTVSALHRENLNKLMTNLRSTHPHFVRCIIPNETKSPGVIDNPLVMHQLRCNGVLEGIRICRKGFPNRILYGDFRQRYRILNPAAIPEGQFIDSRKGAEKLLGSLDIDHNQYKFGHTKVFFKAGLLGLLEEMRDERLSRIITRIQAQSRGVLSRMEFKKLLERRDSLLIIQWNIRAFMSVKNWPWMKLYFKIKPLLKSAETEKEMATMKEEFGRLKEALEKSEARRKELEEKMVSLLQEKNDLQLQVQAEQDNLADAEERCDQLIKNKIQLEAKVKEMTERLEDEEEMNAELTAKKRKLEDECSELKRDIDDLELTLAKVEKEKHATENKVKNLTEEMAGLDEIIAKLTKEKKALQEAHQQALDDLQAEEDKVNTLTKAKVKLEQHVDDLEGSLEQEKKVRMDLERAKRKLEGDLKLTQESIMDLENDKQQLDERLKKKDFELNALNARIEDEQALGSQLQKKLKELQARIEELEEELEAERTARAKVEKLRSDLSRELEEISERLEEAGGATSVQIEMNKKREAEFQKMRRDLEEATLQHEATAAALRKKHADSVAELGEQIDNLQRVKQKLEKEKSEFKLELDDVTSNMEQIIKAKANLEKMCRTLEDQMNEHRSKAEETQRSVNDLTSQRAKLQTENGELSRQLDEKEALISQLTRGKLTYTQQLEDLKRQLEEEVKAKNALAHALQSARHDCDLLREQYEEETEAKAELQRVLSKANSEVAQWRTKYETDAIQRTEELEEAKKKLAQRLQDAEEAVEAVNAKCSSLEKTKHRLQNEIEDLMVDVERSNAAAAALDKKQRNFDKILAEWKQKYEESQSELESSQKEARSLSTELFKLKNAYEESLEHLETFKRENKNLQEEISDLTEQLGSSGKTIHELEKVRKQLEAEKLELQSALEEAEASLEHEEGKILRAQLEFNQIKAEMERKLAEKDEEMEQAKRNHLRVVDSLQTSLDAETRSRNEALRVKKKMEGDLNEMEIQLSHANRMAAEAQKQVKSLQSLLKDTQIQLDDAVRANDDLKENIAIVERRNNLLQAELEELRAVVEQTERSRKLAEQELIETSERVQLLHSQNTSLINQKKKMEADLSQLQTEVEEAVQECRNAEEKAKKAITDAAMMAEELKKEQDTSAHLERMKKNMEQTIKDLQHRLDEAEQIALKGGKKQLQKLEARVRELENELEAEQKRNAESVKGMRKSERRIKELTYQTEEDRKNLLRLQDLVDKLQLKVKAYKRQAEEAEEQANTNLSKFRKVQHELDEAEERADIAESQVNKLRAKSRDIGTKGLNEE
Procedure, shortened: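 Test compounds acted on myofibrils isolated from the left ventricle of Yucatan minipigs. ADP formation was coupled via pyruvate kinase/lactate dehydrogenase to NADH oxidation, monitored kinetically at 340 nm over 75 min. Rates relative to vehicle were fitted with a 4-parameter logistic model, reported as Y75 (25% inhibition) or Y125 (activation) concentrations.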

Skeletal EC25 [1] [nM] | Atrial EC25 [2] [nM] | Ventricular EC25 [3] [nM] | Structure (SMILES)
60 | 120 | 390 | Cc1c(F)ccc2[nH]c(=O)c(C(F)(F)C(=O)N[C@H](C)c3ncc(C#N)cn3)c(C)c12 (single isomer, unassigned) [compound 4831]
170 | 120 | 580 | Cc1c(F)ccc2[nH]c(=O)c(C(F)(F)C(=O)N[C@@H](C)c3ncc(C#N)cn3)c(C)c12 (single isomer, unassigned) [compound 4832]
250 | 520 | 1040 | CC[C@@H](NC(=O)Cc1c(C)c2c(C)c(F)ccc2[nH]c1=O)c1ncc(C#N)cn1 (single isomer, unassigned) [compound 4833]
150 | 490 | 640 | CC[C@H](NC(=O)Cc1c(C)c2c(C)c(F)ccc2[nH]c1=O)c1ncc(C#N)cn1 (single isomer, unassigned) [compound 4834]
110 | 180 | 770 | Cc1c(C(F)(F)C(=O)N[C@H](C)c2ncc(C#N)cc2F)c(=O)[nH]c2ccc(F)c(C#N)c12 (single isomer, unassigned) [compound 4835]
20 | 170 | 150 | Cc1c(C(F)(F)C(=O)N[C@@H](C)c2ncc(C#N)cc2F)c(=O)[nH]c2ccc(F)c(C#N)c12 (single isomer, unassigned) [compound 4836]
210 | 1900 | 3670 | Cc1nc([C@@H](C)NC(=O)Cc2c(C)c3c(C)c(F)ccc3[nH]c2=O)ncc1C#N (single isomer, unassigned) [compound 4837]
280 | 920 | 3580 | Cc1c(C(F)(F)C(=O)N[C@H](C)c2ncc(C#N)cn2)c(=O)[nH]c2cccc(C#N)c12 (single isomer, unassigned) [compound 4838]
130 | 1670 | 1850 | Cc1c(C(F)(F)C(=O)N[C@@H](C)c2ncc(C#N)cn2)c(=O)[nH]c2cccc(C#N)c12 (single isomer, unassigned) [compound 4839]
290 | 1440 | 1620 | Cc1nc([C@H](C)NC(=O)Cc2c(C)c3c(C)c(F)ccc3[nH]c2=O)ncc1C#N (single isomer, unassigned) [compound 4840]
100000 | 97500 | 100000 | Cc1c(C2(C(=O)N[C@H](C)c3nccc(C#N)n3)CC2)c(=O)[nH]c2ccc(F)cc12 (single isomer, unassigned) [compound 4841]
37460 | 100000 | 100000 | Cc1c(C2(C(=O)N[C@@H](C)c3nccc(C#N)n3)CC2)c(=O)[nH]c2ccc(F)cc12 (single isomer, unassigned) [compound 4842]
30 | 60 | 70 | Cc1c(CC(=O)NC(C)c2cnc(C#N)cn2)c(=O)[nH]c2ccc(F)c(F)c12 (stereo in doubt) [compound 1145, (S)—N-(1-(5-cyanopyrazin-2-yl)ethyl)-2-(5,6-difluoro-4-methyl-2-oxo-1,2-dihydroquinolin-3-yl)acetamide]
60 | 100 | 160 | Cc1c(CC(=O)N[C@H](C)c2ncc(C#N)cc2F)c(=O)[nH]c2ccc(F)c(C#N)c12 [compound 31]
10 | 50 | 40 | Cc1c(CC(=O)N[C@@H](C)c2ncc(C#N)cc2F)c(=O)[nH]c2ccc(F)c(C#N)c12 [compound 32]
290 | 170 | 460 | C[C@@H](NC(=O)Cc1cc2c(F)c(F)ccc2[nH]c1=O)c1ncc(F)cc1F [compound 33]

Continued, molecule first:

Structure (SMILES) | Skeletal EC25 [1] [nM] | Atrial EC25 [2] [nM] | Ventricular EC25 [3] [nM]
COc1ccc2[nH]c(=O)c(CC(=O)N[C@@H](C)c3ccc(F)cc3F)cc2c1C#N [Compound 81, (S)-2-(5-Cyano-6-methoxy-2-oxo-1,2-dihydroquinolin-3-yl)-N-(1-(2,4-difluorophenyl)ethyl) acetamide] | 51890 | 100000 | 100000
Cc1c(CC(=O)N[C@H](C)c2ncc(F)cc2F)c(=O)[nH]c2ccc(F)c(C(F)(F)F)c12 [compound 9] | 650 | 3290 | 920
Cc1c(CC(=O)N[C@@H](C)c2ncc(F)cc2F)c(=O)[nH]c2ccc(F)c(C(F)(F)F)c12 [compound 10] | 50 | 160 | 390
C[C@@H](NC(=O)Cc1cc2c(F)c(F)ccc2[nH]c1=O)c1ccc(C#N)cn1 [compound 17] | 430 | 90 | 1560
C[C@H](NC(=O)Cc1cc2c(F)c(F)ccc2[nH]c1=O)c1ccc(C#N)cn1 [compound 18] | 80 | 90 | 260
Cc1c(F)ccc2[nH]c(=O)c(CC(=O)N[C@H](C)c3ccc(C#N)cc3F)c(O)c12 [compound 19] | 2920 | 100000 | 1010
Cc1c(F)ccc2[nH]c(=O)c(CC(=O)N[C@@H](C)c3ccc(C#N)cc3F)c(O)c12 [compound 20] | 510 | 210 | 310
Cc1c(CC(=O)N[C@H](C)c2ncc(C#N)cc2F)c(=O)[nH]c2ccc(F)c(C(F)(F)F)c12 [compound 21] | 40 | 30 | 130
Cc1c(CC(=O)N[C@@H](C)c2ncc(C#N)cc2F)c(=O)[nH]c2ccc(F)c(C(F)(F)F)c12 [compound 22] | 0 | 20 | 20
Cc1c(CC(=O)N[C@H](C)c2ccc(C#N)cn2)c(=O)[nH]c2ccc(F)c(C3CC3)c12 [compound 23] | 500 | 100000 | 1190
Cc1c(CC(=O)N[C@@H](C)c2ccc(C#N)cn2)c(=O)[nH]c2ccc(F)c(C3CC3)c12 [compound 24] | 40 | 50 | 210
C[C@@H](NC(=O)Cc1c(C2CC2)c2c(F)c(F)ccc2[nH]c1=O)c1ccc(C#N)cn1 [compound 25] | 1680 | 100000 | 100000
C[C@H](NC(=O)Cc1c(C2CC2)c2c(F)c(F)ccc2[nH]c1=O)c1ccc(C#N)cn1 [compound 26] | 210 | 6130 | 1400
Cc1c(CC(=O)N[C@@H](C)c2ncc(C#N)cc2F)c(=O)[nH]c2ccc(F)c(C3CC3)c12 [compound 28] | 20 | 40 | 60
